Series [1] deals with Delta-type opioid receptor (Homo sapiens) (UniProt P41143). In words: Agonist activity at human recombinant DOR expressed in CHO cells assessed as calcium mobilization up to 1 uM by Fluo-4 AM based fluorescence analysis. The class given is functional, cell-based.
The target in series [2] is Kappa-type opioid receptor (Cavia porcellus, UniProt P41144). Nature of the series: Displacement of [3H]nor-BNI from KOR in Dunkin Hartley guinea pig brain homogenates after 180 mins by liquid scintillation counting analysis.
Chain of Kappa-type opioid receptor (P41144 whole entry): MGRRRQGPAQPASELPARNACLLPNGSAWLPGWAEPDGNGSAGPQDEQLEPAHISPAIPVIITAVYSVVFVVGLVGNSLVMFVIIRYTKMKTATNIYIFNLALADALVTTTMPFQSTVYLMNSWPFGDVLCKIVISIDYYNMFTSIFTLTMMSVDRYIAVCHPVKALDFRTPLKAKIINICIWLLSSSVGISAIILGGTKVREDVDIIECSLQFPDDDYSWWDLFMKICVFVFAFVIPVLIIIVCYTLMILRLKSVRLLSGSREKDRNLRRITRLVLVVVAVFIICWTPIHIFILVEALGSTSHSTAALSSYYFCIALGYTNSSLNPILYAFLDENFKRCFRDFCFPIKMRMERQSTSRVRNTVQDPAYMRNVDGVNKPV
The target of series [3] is T1, Mu-type opioid receptor (Homo sapiens, UniProt P35372). Nature of the series: Agonist activity at human recombinant MOR expressed in CHO cells assessed as calcium mobilization by Fluo-4 AM based fluorescence analysis. The class given is functional, cell-based. For orientation: Calcium flux is commonly read through the fluorescence of an indicator in the cells.
T1 sequence (P35372 whole entry): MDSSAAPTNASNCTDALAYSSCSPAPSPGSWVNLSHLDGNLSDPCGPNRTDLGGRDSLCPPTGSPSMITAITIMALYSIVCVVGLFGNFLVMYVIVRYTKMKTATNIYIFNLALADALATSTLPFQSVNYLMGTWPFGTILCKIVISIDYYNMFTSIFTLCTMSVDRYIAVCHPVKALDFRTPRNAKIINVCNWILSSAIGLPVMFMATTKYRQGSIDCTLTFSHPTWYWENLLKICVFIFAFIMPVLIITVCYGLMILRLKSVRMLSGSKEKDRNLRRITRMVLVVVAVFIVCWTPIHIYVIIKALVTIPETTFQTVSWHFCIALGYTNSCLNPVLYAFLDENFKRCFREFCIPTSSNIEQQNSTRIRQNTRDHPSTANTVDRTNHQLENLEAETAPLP
Series [4] concerns the target Delta-type opioid receptor (Rattus norvegicus, UniProt P33533). Nature of the series: Displacement of [3H][Ile5,6]deltorphin-2 from DOR in Wistar rat brain homogenates after 180 mins by liquid scintillation counting analysis. For orientation: In a radioligand displacement assay an active substance lowers the binding of a labelled ligand.
Series [5] deals with T1, Mu-type opioid receptor. In words: Agonist activity at human recombinant MOR expressed in CHO cells assessed as calcium mobilization by Fluo-4 AM based fluorescence analysis relative to EM2. The format is functional, cell-based.
In series [6] the target is Kappa-type opioid receptor (Homo sapiens) (UniProt P41145). Nature of the series: Agonist activity at human recombinant KOR expressed in CHO cells assessed as calcium mobilization up to 1 uM by Fluo-4 AM based fluorescence analysis. The class given is functional, cell-based.
Chain of Kappa-type opioid receptor (Homo sapiens) (P41145 whole entry): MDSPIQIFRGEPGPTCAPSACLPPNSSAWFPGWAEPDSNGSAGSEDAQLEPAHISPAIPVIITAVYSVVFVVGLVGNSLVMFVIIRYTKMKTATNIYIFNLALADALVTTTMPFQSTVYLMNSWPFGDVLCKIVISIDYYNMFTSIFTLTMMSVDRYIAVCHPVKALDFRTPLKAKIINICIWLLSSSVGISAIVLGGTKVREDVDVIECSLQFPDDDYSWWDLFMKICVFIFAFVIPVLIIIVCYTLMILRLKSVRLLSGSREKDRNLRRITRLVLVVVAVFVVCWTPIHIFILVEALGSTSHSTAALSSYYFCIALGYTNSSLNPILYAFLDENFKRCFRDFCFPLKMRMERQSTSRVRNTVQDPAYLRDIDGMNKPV
The target in series [7] is Mu-type opioid receptor (Rattus norvegicus, UniProt P33535). Nature of the series: Displacement of [3H]DAMGO from MOR in Wistar rat brain homogenates after 180 mins by liquid scintillation counting analysis.
Chain of Mu-type opioid receptor (Rattus norvegicus, UniProt P33535) (P33535 whole entry): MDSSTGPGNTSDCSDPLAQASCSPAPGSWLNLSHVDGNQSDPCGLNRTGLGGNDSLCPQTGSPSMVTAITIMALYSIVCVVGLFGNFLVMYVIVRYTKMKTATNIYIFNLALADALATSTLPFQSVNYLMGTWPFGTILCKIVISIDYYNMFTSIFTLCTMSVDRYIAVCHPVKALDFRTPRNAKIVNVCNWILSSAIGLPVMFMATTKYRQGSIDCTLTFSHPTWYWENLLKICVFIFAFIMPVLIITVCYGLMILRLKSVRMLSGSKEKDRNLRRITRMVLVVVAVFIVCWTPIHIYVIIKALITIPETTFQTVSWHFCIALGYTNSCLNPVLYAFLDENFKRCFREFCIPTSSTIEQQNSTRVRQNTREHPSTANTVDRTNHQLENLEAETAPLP
The nature of series [8]: Stability of compound in Wistar rat brain homogenate assessed as compound remaining at 0.5 mM after 90 mins by RP-HPLC analysis. To be noted: read-out: Stability. The format is ADME, tissue-based.

The source made the active and inactive calls. The calls are words filed in the database; no cut-off is given here.

Chain of Delta-type opioid receptor (P33533 whole entry): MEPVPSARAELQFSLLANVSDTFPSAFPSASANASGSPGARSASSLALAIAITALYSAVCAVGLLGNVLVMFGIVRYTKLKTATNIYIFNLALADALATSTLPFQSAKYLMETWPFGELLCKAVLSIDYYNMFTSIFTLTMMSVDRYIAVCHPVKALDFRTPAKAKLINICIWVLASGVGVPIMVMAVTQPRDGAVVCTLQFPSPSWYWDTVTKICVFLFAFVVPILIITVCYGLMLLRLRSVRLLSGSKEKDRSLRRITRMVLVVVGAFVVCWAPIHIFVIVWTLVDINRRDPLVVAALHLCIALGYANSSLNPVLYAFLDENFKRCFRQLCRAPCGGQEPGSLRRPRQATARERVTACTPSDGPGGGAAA
Chain of Delta-type opioid receptor (Homo sapiens) (P41143 whole entry): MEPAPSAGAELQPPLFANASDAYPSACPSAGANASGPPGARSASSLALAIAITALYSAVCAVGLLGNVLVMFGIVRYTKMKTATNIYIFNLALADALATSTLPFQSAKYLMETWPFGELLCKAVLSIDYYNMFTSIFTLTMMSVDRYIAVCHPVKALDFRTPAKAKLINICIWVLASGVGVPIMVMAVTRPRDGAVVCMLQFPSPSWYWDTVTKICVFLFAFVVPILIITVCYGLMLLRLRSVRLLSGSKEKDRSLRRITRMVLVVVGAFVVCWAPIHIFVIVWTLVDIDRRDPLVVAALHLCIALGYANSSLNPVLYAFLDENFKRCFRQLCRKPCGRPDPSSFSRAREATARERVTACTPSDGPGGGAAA

With `CN[C@@H](Cc1ccc(O)cc1)C(=O)N[C@@H]1CCCCNC(=O)C[C@@H](C(N)=O)NC(=O)[C@H](Cc2ccccc2)N(C)C(=O)[C@H](Cc2ccccc2)NC1=O`, the result in series [1] and in series [6] was inactive. Further, the Ki (commonly a measure of affinity in units of concentration, obtained from inhibition or displacement) is more than 1000 nM in series [2] (read-out: Ki), more than 1000 nM in series [4] (read-out: Ki) and 0.73 nM on Mu-type opioid receptor [7] (read-out: Ki). Besides, the EC50 (as a rule, the concentration that produces a half-maximal response) at Mu-type opioid receptor [3] was 10.2 nM. Moreover, the Intrinsic activity at Mu-type opioid receptor [5] amounted to 0.93. The remaining at 1.5 h, 500 µM in series [8] is 97.2%.
Consider `CN[C@@H](Cc1ccc(O)cc1)C(=O)N[C@@H]1CCCCNC(=O)C[C@@H](C(N)=O)NC(=O)[C@H](Cc2ccccc2)N(C)C(=O)CNC(=O)[C@H](Cc2ccccc2)N(C)C1=O`, for which the results for the Ki (in series [2] (read-out: Ki); in series [4] (read-out: Ki); at Mu-type opioid receptor [7] (read-out: Ki)) were 519 nM, more than 1000 nM and 76.5 nM, respectively. In addition, the remaining at 1.5 h, 500 µM in series [8] was determined as 97%.
On to `CN[C@H](Cc1ccc(O)cc1)C(=O)N[C@H]1CCCCNC(=O)C[C@@H](C(N)=O)NC(=O)[C@H](Cc2ccccc2)N(C)C(=O)CNC(=O)[C@H](Cc2ccccc2)N(C)C1=O`, for which the result in series [1] and in series [6] was inactive. On Mu-type opioid receptor [3], the pEC50 entry was “inactive”.
With `CN[C@@H](Cc1ccc(O)cc1)C(=O)N[C@@H]1CCCCNC(=O)C[C@@H](C(N)=O)NC(=O)[C@H](Cc2ccccc2)N(C)C(=O)[C@H](Cc2ccccc2)N(C)C1=O`, the Ki result (in series [2]; in series [4]; at Mu-type opioid receptor [7]) was “Nd(Insoluble)” each time. In addition, the remaining at 1.5 h, 500 µM in series [8] stood at 96.9%.
`CN[C@@H](Cc1ccc(O)cc1)C(=O)N[C@@H]1CCCCNC(=O)C[C@@H](C(N)=O)NC(=O)CNC(=O)[C@H](Cc2ccccc2)N(C)C(=O)[C@H](Cc2ccccc2)N(C)C(=O)CNC1=O`: the result in series [1] and in series [6] was inactive. Also, the inhibition constant Ki in series [2] (read-out: Ki) is more than 1000 nM; in series [4] (read-out: Ki) it was more than 1000 nM; at Mu-type opioid receptor [7] (read-out: Ki), 106 nM. In addition, the pEC50 result on Mu-type opioid receptor [3] is “inactive”. In series [8], the remaining at 1.5 h, 500 µM was found to be 97.4%.

These data come from ChEMBL document CHEMBL4007500, “Cyclic mu-opioid receptor ligands containing multiple N-methylated amino acid residues” (Bioorg Med Chem Lett, 2017).
